Results taken from paper PMC11677126, “Synthesis and Structure–Activity Relationship of Thiourea Derivatives Against Leishmania amazonensis” (Pharmaceuticals, 2024).
Where two headings read alike, the source gives them in different places.

Columns and labels:
[1] = test system: L. amazonensis promastigote; assay: Antipromastigote assay (resazurin fluorescence); type: cell-based, Leishmania amazonensis; conditions: promastigotes, 72 h at 26 °C
Method: The fluorescence was measured using a Spectra Max GEMINI XPS spectrofluorometer (Molecular Devices, Silicon Valley, CA, USA) at excitation and emission wavelengths of 560 nm and 590 nm, respectively.

[2] = Toxicity assay in murine macrophages (resazurin); type: cell-based; conditions: BALB/c, mouse, mouse peritoneal macrophages
Method: Mouse peritoneal macrophages (2 × 10^6 cells/mL) in 96-well plates were treated with different concentrations of thiourea compounds (G1: 0–400 µM and G2: 0–125 µM) for 72 h at 37 °C/5% CO2. After removing the supernatant, viable cells were quantified by adding resazurin in phosphate-buffered saline, a final concentration of 50 µM, and then the samples were incubated for an additional 3 h. The fluorescence was measured using a Spectra Max GEMINI XPS spectrofluorometer (Molecular Devices, Silicon Valley, CA, USA) at excitation and emission wavelengths of 560 nm and 590 nm, respectively. The percentage of viable cells was calculated relative to the control cells. The cytotoxic concentrations lethal to 50% of the cells (CC50) were obtained by nonlinear regression of the sigmoid growth curves using the Graph Pad Prism 9.0 software.

[3] = test system: L. amazonensis intracellular amastigotes; assay: Antiamastigote assay in infected peritoneal macrophages (infection index); type: cell-based; conditions: Leishmania amazonensis, Peritoneal macrophage, 72 h
Method: Resident macrophages from BALB/c mice were obtained by peritoneal lavage with 5 mL of cold RPMI medium. The cell suspension was adjusted to a 2 × 10^6 cells/mL concentration and plated in LAB-TEK chambers. After 1 h, the cultures were washed with phosphate-buffered saline at 37 °C to remove non-adherent cells. The remaining cells were incubated at 37 °C/5% CO2 with promastigotes of L. amazonensis at a ratio of 3:1. After 3 h, the chambers were rewashed to remove free parasites. […] For G2, we first tested only at a concentration of 10 µM, and derivatives with inhibition above 60% were evaluated using the dose–response curve. The antiamastigote activity was evaluated microscopically after staining the chambers with the Instant Prov hematological dye system (Newprov, Curitiba, Brazil); at least 100 macrophages were counted per sample. The results were expressed as the infection index (IF) using the following formula: IF = % infected cells X (number of amastigotes/total macrophages). The IC50 value was determined by nonlinear regression using Graph Pad Prism 9.0.

[4] = test system: Leishmania major promastigotes; parameters: method as in PMID 36001225; conditions: after 48 h (text b28); cited from earlier work
[5] = test system: L. amazonensis promastigotes; parameters: method as in doi:10.5897/JMA2013.0261; conditions: L. amazonensis promastigotes (text b27); cited from earlier work
[6] = test system: L. amazonensis promastigote; parameters: method as in PMID 28966275; conditions: cited from earlier work
[7] = test system: Leishmania amazonensis amastigotes; parameters: method as in PMID 28966275; conditions: read-out: IC50 (amastigote); cited from earlier work
[8] = test system: Leishmania infantum amastigotes; parameters: method as in PMID 30782984; conditions: cited from earlier work
[9] = test system: L. infantum amastigote; conditions: cited from earlier work
[10] = test system: L. donovani amastigote; conditions: cited from earlier work
[11] = Leishmania amazonensis, 72 h, G1 thioureas, maximum concentration tested 100 µM
[12] = G1 thioureas, maximum concentration tested 25 µM
[13] = G1 thioureas, maximum concentration tested 100 µM
[14] = Leishmania amazonensis, 72 h, G2 piperazine thioureas
[15] = G2 piperazine thioureas, 0–125 µM
[16] = G2 piperazine thioureas, maximum concentration tested 10 µM, unit from footnote

Compound	IC50 [1, 11]	IC50 [1, 14]	further results
COc1ccc(NC(=S)Nc2ccccc2)cc1 [Thiourea 3g]	> 100 µM		
S=C(Nc1ccccc1)Nc1ccc(Br)cc1 [Thiourea 3p]	< 50 µM		CC50 at 72 h ([2]; G1 thioureas, 0–400 µM): > 400 µM; IC50 [3, 12]: 8.7 ± 1.4 µM; IC50 [1, 13]: 32.9 ± 9.5 µM
C[C@@H]1[C@H](O)[C@@H](C)/C=C/C=C/C=C/C=C/C=C/C=C/C=C/[C@H](O[C@@H]2O[C@H](C)[C@@H](O)[C@H](N)[C@@H]2O)C[C@@H]2O[C@](O)(C[C@@H](O)C[C@@H](O)[C@H](O)CC[C@@H](O)C[C@@H](O)CC(=O)O[C@H]1C)C[C@H](O)[C@H]2C(=O)O [amphotericin B]			IC50 [4]: 0.2 ± 0.01 µM
CCc1nnc(NC(=S)NCc2ccccc2)s1 [Thiourea 3s]	58.4 ± 1.9 µM		
COc1cc(NC(=S)NCc2ccccc2)cc(OC)c1 [Thiourea 3k]	> 100 µM		
S=C(NCCc1ccccc1)Nc1ccccn1 [Thiourea 3f]	> 100 µM		
COc1cc(NC(=S)Nc2nnc(C(F)(F)F)s2)cc(OC)c1OC [Thiourea 3a′]	77.8 ± 6.7 µM		
COc1ccc(NC(=S)NCc2ccccc2)cc1OC [Thiourea 3i]	> 100 µM		
S=C(NCCc1ccccc1)N1CCOCC1 [Thiourea 3c]	> 100 µM		
Cc1nnc(NC(=S)Nc2ccccc2)s1 [Thiourea 3r]	65.8 ± 8.2 µM		
N=C(N)c1ccc(OCCCCCOc2ccc(C(=N)N)cc2)cc1 [pentamidine]			IC50 [5]: 0.46 µM
Cc1ccccc1NC(=S)NCc1ccccc1 [Thiourea 3u]	56.2 ± 4.2 µM		
COc1cc(NC(=S)Nc2ccccn2)cc(OC)c1OC [Thiourea 3y]	> 100 µM		
COc1ccc(NC(=S)NCc2ccccc2)cc1 [Thiourea 3h]	61.6 ± 6.5 µM		
S=C(NCCc1ccccc1)Nc1ccc2c(c1)OCO2 [Compound 8]			IC50 [6]: 54.1 ± 6.77 µM; IC50 [7]: 70 µM
Oc1cccc(NC(=S)NCc2ccccc2)c1 [Thiourea 3v]	> 100 µM		
Cc1sc(NC(=S)NC(=O)C2CC2)nc1-c1ccccc1 [Compound 11]			IC50 [4]: 122 ± 1.41 µM
S=C(NCc1ccccc1)N1CCOCC1 [Thiourea 3b]	> 100 µM		

Compound	IC50 [1, 11]	IC50 [1, 14]	further results
meglumine antimoniate			IC50 [7]: 212 µM
S=C(NCc1ccccc1)Nc1ccccn1 [Thiourea 3e]	< 50 µM		CC50 at 72 h ([2]; G1 thioureas, 0–400 µM): > 400 µM; IC50 [1, 13]: 25.4 ± 8.3 µM
COc1cc(NC(=S)N2CCOCC2)cc(OC)c1OC [Thiourea 3x]	> 100 µM		
COc1ccc(NC(=S)Nc2cc(OC)c(OC)c(OC)c2)cc1OC [Thiourea 3z]	> 100 µM		
CCCCNC(=S)Nc1ccc([Se][Se]c2ccc(NC(=S)NCCCC)cc2)cc1 [Compound 10]			IC50 [8]: 2.36 ± 0.44 µM
CN(C[C@H](O)[C@@H](O)[C@H](O)[C@H](O)CO)C(=S)NCc1ccccc1 [Thiourea 3w]	> 100 µM		
S=C(NCc1ccccc1)Nc1ccc(Br)cc1 [Thiourea 3q]	< 50 µM		CC50 at 72 h ([2]; G1 thioureas, 0–400 µM): > 400 µM; IC50 [3, 12]: > 25 µM; IC50 [1, 13]: 44.4 ± 10.6 µM
COc1cc(NC(=S)NCCc2ccccc2)cc(OC)c1OC [Thiourea 3m]	> 100 µM		
CCCCNC(=S)Nc1cc(OC)c(OC)c(OC)c1 [Thiourea 3b′]	> 100 µM		
S=C(Nc1ccccc1)Nc1ccccn1 [Thiourea 3d]			CC50 at 72 h ([2]; G1 thioureas, 0–400 µM): > 400 µM; IC50 [3, 12]: 10.8 ± 2.4 µM
CCCCCCCCCCCCCCCCOP(=O)([O-])OCC[N+](C)(C)C [Miltefosine, reference compound]	6.9 ± 2.4 µM	6.9 ± 2.4 µM	IC50 [8]: 2.84 ± 0.1 µM; IC50 [3, 12]: 7.5 ± 1.2 µM; IC50 [3, 16]: 7.5 ± 1.2 µM
COc1cc(NC(=S)NCCc2ccccc2)cc(OC)c1 [Thiourea 3l]	> 100 µM		
CCOC(=O)c1ccc(NC(N)=S)cc1 [Thiourea 9]			IC50 [5]: 45 µM
CC(C)Oc1cc(C(=O)Nc2cc(-c3ccccn3)n[nH]2)cc(C(=O)N2CCCC2)c1 [Compound 6]			IC50 [9]: > 42.4 µM; IC50 [10]: ≥ 10.9 µM
S=C(Nc1ccccc1)N1CCOCC1 [Thiourea 3a]	> 100 µM		
COc1ccc(NC(=S)NCCc2ccccc2)cc1OC [Thiourea 3j]	> 100 µM		
O=C(NNC(=S)NCc1ccccc1)c1ccccc1 [Thiourea 3o]	80.4 ± 10 µM		
CCCCNC(=S)Nc1ccccc1 [Thiourea 3t]	60 ± 6.4 µM		

Now from value to compound, other results behind:

IC50 [1, 11]	IC50 [1, 14]	Compound	further results
	> 128 µM	S=C(Nc1ccccc1)N1CCN(c2nc3ccccc3[nH]2)CC1 [Thiourea 5p]	
	28.2 ± 2.5 µM	S=C(NCCc1ccccc1)N1CCN(c2ccccc2Cl)CC1 [Thiourea 5l]	CC50 at 72 h [2, 15]: 79.5 ± 19.8 µM; IC50 [3, 16]: > 10 µM
	> 128 µM	S=C(Nc1ccccc1)N1CCN(c2ccccc2Cl)CC1 [Thiourea 5j]	
	30.7 ± 3.2 µM	S=C(Nc1ccccc1)N1CCN(C(c2ccccc2)c2ccccc2)CC1 [Thiourea 5g]	CC50 at 72 h [2, 15]: > 125 µM; IC50 [3, 16]: > 10 µM
	22.3 ± 1.6 µM	COc1cc(NC(=S)N2CCN(C(c3ccccc3)c3ccccc3)CC2)cc(OC)c1OC [Thiourea 5t]	CC50 at 72 h [2, 15]: 81.3 ± 16.9 µM; IC50 [3, 16]: 4.9 ± 1.2 µM
	> 128 µM	COc1cc(NC(=S)N2CCN(C(=O)C3CCCO3)CC2)cc(OC)c1OC (stereo not shown) [Thiourea 5r]	
	30.7 ± 3 µM	S=C(NCc1ccccc1)N1CCN(c2ccccc2Cl)CC1 [Thiourea 5k]	CC50 at 72 h [2, 15]: 68.3 ± 2.8 µM; IC50 [3, 16]: > 10 µM
	> 128 µM	S=C(NCCc1ccccc1)N1CCN(Cc2ccc3c(c2)OCO3)CC1 [Thiourea 5f]	
	42.5 ± 1.6 µM	COc1ccc(CN2CCN(C(=S)NCc3ccccc3)CC2)c(OC)c1OC [Thiourea 5n]	CC50 at 72 h [2, 15]: 88.3 ± 5.6 µM; IC50 [3, 16]: > 10 µM
	> 128 µM	O=C(C1CCCO1)N1CCN(C(=S)Nc2ccccc2)CC1 (stereo not shown) [Thiourea 5a]	
	> 128 µM	COc1cc(NC(=S)N2CCN(Cc3ccc4c(c3)OCO4)CC2)cc(OC)c1OC [Thiourea 5s]	
	7.9 ± 1.9 µM	S=C(NCc1ccccc1)N1CCN(C(c2ccccc2)c2ccccc2)CC1 [Thiourea 5h]	CC50 at 72 h [2, 15]: > 125 µM; IC50 [3, 16]: 8.8 ± 3.5 µM
	18.8 ± 3.1 µM	S=C(NCCc1ccccc1)N1CCN(c2nc3ccccc3[nH]2)CC1 [Thiourea 5q]	CC50 at 72 h [2, 15]: 72.9 ± 32.2 µM; IC50 [3, 16]: > 10 µM
	30.3 ± 4.6 µM	S=C(NCc1ccccc1)N1CCN(Cc2ccc3c(c2)OCO3)CC1 [Thiourea 5e]	CC50 at 72 h [2, 15]: 122 ± 2.8 µM; IC50 [3, 16]: > 10 µM
	6.9 ± 2 µM	S=C(NCCc1ccccc1)N1CCN(C(c2ccccc2)c2ccccc2)CC1 [Thiourea 5i]	CC50 at 72 h [2, 15]: > 125 µM; IC50 [3, 16]: 1.8 ± 0.5 µM
	> 128 µM	COc1cc(NC(=S)N2CCN(Cc3ccc(OC)c(OC)c3OC)CC2)cc(OC)c1OC [Thiourea 5v]	
	77.5 ± 4.5 µM	O=C(C1CCCO1)N1CCN(C(=S)NCc2ccccc2)CC1 (stereo not shown) [Thiourea 5b]	
	> 128 µM	COc1cc(NC(=S)N2CCN(c3ccccc3Cl)CC2)cc(OC)c1OC [Thiourea 5u]	
	> 128 µM	COc1ccc(CN2CCN(C(=S)NCCc3ccccc3)CC2)c(OC)c1OC [Thiourea 5o]	
	> 128 µM	COc1ccc(CN2CCN(C(=S)Nc3ccccc3)CC2)c(OC)c1OC [Thiourea 5m]	
	90.2 ± 2.9 µM	S=C(Nc1ccccc1)N1CCN(Cc2ccc3c(c2)OCO3)CC1 [Thiourea 5d]	
	> 128 µM	O=C(C1CCCO1)N1CCN(C(=S)NCCc2ccccc2)CC1 (stereo not shown) [Thiourea 5c]	
